# Test results taken from patent US9828360B2 (Array BioPharma Inc., priority 2012, dated 2017).
# Key:
# TrkA [1] = target: T1, TrkA (Homo sapiens, UniProt P04629); assay: TrkA LanthaScreen Eu Kinase Binding Assay; parameters: 6HIS tagged cytoplasmic domain from Invitrogen, Cat. No. PV3144; purchased Invitrogen PV3144; conditions: averaged IC50 values, read-out: TrkA Enzyme IC50
# Protocol: TrkA binding activity was determined in a TrkA LanthaScreen™ Eu Kinase Binding Assay. 5 nM His-tagged recombinant human TrkA (6HIS tagged cytoplasmic domain from Invitrogen, Cat. No. PV3144) was incubated with 4 nM Alexa-Fluor® Tracer 236 (Invitrogen Cat. No. PV5592), 2 nM biotinylated anti-His (Invitrogen Cat. No. PV6090), and 2 nM europium-labeled Streptavidin (Invitrogen Cat. No. PV5899), in buffer (25 mM MOPS, pH 7.5, 5 mM MgCl2, 0.005% Triton X-100). Three fold serial dilutions of compounds of the invention in DMSO were added to a final percentage of 2% DMSO. After 60-minute incubation at 22° C., the reaction was measured using the EnVision mutlimode plate reader (PerkinElmer) via TR-FRET dual wavelength detection at […]. The percent of control was calculated using a ratiometric emission factor. The IC50 values were determined by fitting a four parameter model to the percent of control data.
# Table A provides averaged IC50 values for compounds of the invention when tested in the assay of Example A, where A represents an averaged IC50 value <100 nM; and B represents an averaged IC50 value from 100 to 1,000 nM.
# TrkA [2] = target: T1, TrkA; assay: KinaseProfiler off-target kinase profiling; type: biochemical; parameters: purchased Millipore, Inc. (KinaseProfiler service); conditions: 10 μM, ATP near Km
# Protocol: A representative compound of the invention (Example 48) was tested for off-target kinase activity at a concentration of 10 μM by Millipore, Inc. in their KinaseProfiler™ service against all the kinases available in their full kinase panel. The compound was run in duplicate at a concentration of ATP near the Km for each individual kinase according to Millipore's specifications. The results are shown in Table B. Data are reported as percent of control (POC) and are the average of the two replicates.
# c-RAF = target: T2, c-RAF (Homo sapiens, UniProt P04049, Y340D/Y341D); assay: KinaseProfiler off-target kinase profiling; type: biochemical; conditions: 10 μM, ATP near Km
# T2 construct: purchased Millipore, Inc. (KinaseProfiler service)
# In short: (§1)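 Duplicate measurements were made with 10 μM test compound and ATP close to the kinase-specific Km. Percent-of-control figures are the mean of those two measurements.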
# NEK3 = target: T3, NEK3 (Homo sapiens, UniProt P51956); assay: KinaseProfiler off-target kinase profiling; type: biochemical; conditions: 10 μM, ATP near Km
# T3 construct: purchased Millipore, Inc. (KinaseProfiler service)
# In short: as §1
# Fer = target: T4, Fer (Homo sapiens, UniProt P16591); assay: KinaseProfiler off-target kinase profiling; type: biochemical; conditions: 10 μM, ATP near Km
# T4 construct: purchased Millipore, Inc. (KinaseProfiler service)
# In short: as §1
# CK1gamma3 = target: T5, CK1gamma3 (Homo sapiens, UniProt Q9Y6M4); assay: KinaseProfiler off-target kinase profiling; type: biochemical; conditions: 10 μM, ATP near Km
# T5 construct: purchased Millipore, Inc. (KinaseProfiler service)
# In short: as §1
# GRK5 = target: T6, GRK5 (Homo sapiens, UniProt P34947); assay: KinaseProfiler off-target kinase profiling; type: biochemical; conditions: 10 μM, ATP near Km
# T6 construct: purchased Millipore, Inc. (KinaseProfiler service)
# In short: as §1
# Abl2 = target: T7, Abl2 (Homo sapiens, UniProt P42684); assay: KinaseProfiler off-target kinase profiling; type: biochemical; conditions: 10 μM, ATP near Km
# T7 construct: purchased Millipore, Inc. (KinaseProfiler service)
# In short: as §1
# SIK = target: T8, SIK (Homo sapiens, UniProt P57059); assay: KinaseProfiler off-target kinase profiling; type: biochemical; conditions: 10 μM, ATP near Km
# T8 construct: purchased Millipore, Inc. (KinaseProfiler service)
# In short: as §1
# PDGFRalpha = target: T9, PDGFRalpha (Homo sapiens, UniProt P16234); assay: KinaseProfiler off-target kinase profiling; type: biochemical; conditions: 10 μM, ATP near Km
# T9 construct: purchased Millipore, Inc. (KinaseProfiler service)
# In short: as §1
# BTK = target: T10, BTK (Homo sapiens, UniProt Q06187); assay: KinaseProfiler off-target kinase profiling; type: biochemical; conditions: 10 μM, ATP near Km
# T10 construct: purchased Millipore, Inc. (KinaseProfiler service)
# In short: as §1
# CHK1 = target: T11, CHK1 (Homo sapiens, UniProt O14757); assay: KinaseProfiler off-target kinase profiling; type: biochemical; conditions: 10 μM, ATP near Km
# T11 construct: purchased Millipore, Inc. (KinaseProfiler service)
# In short: as §1
# Hck = target: T12, Hck (Homo sapiens, UniProt P08631); assay: KinaseProfiler off-target kinase profiling; type: biochemical; conditions: 10 μM, ATP near Km
# T12 construct: purchased Millipore, Inc. (KinaseProfiler service)
# In short: as §1
# PKCbetaII = target: T13, PKCbetaII (Homo sapiens, UniProt P05771); assay: KinaseProfiler off-target kinase profiling; type: biochemical; conditions: 10 μM, ATP near Km
# T13 construct: purchased Millipore, Inc. (KinaseProfiler service)
# In short: as §1
# p38beta = target: T14, p38beta (Homo sapiens, UniProt Q15759); assay: KinaseProfiler off-target kinase profiling; type: biochemical; conditions: 10 μM, ATP near Km
# T14 construct: purchased Millipore, Inc. (KinaseProfiler service)
# In short: as §1
# ErbB4 = target: T15, ErbB4 (Homo sapiens, UniProt Q15303); assay: KinaseProfiler off-target kinase profiling; type: biochemical; conditions: 10 μM, ATP near Km
# T15 construct: purchased Millipore, Inc. (KinaseProfiler service)
# In short: as §1
# Pim-2 = target: T16, Pim-2 (Homo sapiens, UniProt Q9P1W9); assay: KinaseProfiler off-target kinase profiling; type: biochemical; conditions: 10 μM, ATP near Km
# T16 construct: purchased Millipore, Inc. (KinaseProfiler service)
# In short: as §1
# MSK1 = target: T17, MSK1 (Homo sapiens, UniProt O75582); assay: KinaseProfiler off-target kinase profiling; type: biochemical; conditions: 10 μM, ATP near Km
# T17 construct: purchased Millipore, Inc. (KinaseProfiler service)
# In short: as §1
# PAK5 = target: T18, PAK5 (Homo sapiens, UniProt Q9P286); assay: KinaseProfiler off-target kinase profiling; type: biochemical; conditions: 10 μM, ATP near Km
# T18 construct: purchased Millipore, Inc. (KinaseProfiler service)
# In short: as §1
# Lyn = target: T19, Lyn (Homo sapiens, UniProt P07948); assay: KinaseProfiler off-target kinase profiling; type: biochemical; conditions: 10 μM, ATP near Km
# T19 construct: purchased Millipore, Inc. (KinaseProfiler service)
# In short: as §1
# PTK5 = target: T20, PTK5 (Homo sapiens, UniProt P42685); assay: KinaseProfiler off-target kinase profiling; type: biochemical; conditions: 10 μM, ATP near Km
# T20 construct: purchased Millipore, Inc. (KinaseProfiler service)
# In short: as §1
# TSSK1 = target: T21, TSSK1 (Homo sapiens, UniProt Q9BXA7); assay: KinaseProfiler off-target kinase profiling; type: biochemical; conditions: 10 μM, ATP near Km
# T21 construct: purchased Millipore, Inc. (KinaseProfiler service)
# In short: as §1
# DAPK2 = target: T22, DAPK2 (Homo sapiens, UniProt Q9UIK4); assay: KinaseProfiler off-target kinase profiling; type: biochemical; conditions: 10 μM, ATP near Km
# T22 construct: purchased Millipore, Inc. (KinaseProfiler service)
# In short: as §1
# MKNK2 = target: T23, MKNK2 (Homo sapiens, UniProt Q9HBH9); assay: KinaseProfiler off-target kinase profiling; type: biochemical; conditions: 10 μM, ATP near Km
# T23 construct: purchased Millipore, Inc. (KinaseProfiler service)
# In short: as §1
# T8 sequence (P57059 whole entry): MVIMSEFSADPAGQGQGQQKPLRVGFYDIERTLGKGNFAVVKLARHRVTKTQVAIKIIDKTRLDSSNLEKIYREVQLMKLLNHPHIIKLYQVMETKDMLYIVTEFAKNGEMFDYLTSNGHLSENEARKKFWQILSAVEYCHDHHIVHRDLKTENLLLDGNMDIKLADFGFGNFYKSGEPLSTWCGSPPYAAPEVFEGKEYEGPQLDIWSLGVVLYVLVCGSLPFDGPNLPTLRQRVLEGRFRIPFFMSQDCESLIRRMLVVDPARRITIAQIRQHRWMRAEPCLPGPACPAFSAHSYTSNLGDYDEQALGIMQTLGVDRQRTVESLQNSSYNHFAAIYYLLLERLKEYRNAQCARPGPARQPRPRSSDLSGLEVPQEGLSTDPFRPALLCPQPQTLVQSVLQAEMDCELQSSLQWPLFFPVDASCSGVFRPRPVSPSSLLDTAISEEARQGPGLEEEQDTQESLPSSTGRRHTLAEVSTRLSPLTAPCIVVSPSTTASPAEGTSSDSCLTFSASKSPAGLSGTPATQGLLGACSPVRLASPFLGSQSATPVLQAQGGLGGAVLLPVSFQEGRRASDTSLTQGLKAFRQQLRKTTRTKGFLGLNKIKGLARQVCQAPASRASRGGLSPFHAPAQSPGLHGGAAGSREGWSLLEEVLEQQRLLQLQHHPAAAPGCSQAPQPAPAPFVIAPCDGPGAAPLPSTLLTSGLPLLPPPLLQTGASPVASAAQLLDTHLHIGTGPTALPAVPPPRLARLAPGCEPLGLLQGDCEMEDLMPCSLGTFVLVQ
# T16 sequence (Q9P1W9 whole entry): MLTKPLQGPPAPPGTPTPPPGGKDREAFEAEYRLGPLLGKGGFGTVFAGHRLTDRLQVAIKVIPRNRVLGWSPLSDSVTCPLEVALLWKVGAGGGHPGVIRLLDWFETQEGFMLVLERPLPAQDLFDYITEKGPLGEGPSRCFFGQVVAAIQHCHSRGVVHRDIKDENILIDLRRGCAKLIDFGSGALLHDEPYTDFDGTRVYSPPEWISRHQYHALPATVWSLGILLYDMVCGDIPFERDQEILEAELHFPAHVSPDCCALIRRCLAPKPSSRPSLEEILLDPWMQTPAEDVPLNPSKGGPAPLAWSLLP
# T14 sequence (Q15759 whole entry): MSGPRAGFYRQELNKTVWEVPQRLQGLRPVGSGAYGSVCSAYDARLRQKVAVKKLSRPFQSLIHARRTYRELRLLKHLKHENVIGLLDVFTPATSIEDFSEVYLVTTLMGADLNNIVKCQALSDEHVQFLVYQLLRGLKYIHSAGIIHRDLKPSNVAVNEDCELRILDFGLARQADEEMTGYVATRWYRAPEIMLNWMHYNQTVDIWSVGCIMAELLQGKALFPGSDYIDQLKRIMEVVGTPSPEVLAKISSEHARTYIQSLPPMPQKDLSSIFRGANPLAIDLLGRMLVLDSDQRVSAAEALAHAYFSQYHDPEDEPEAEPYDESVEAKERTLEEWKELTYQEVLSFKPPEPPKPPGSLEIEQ
# T18 sequence (Q9P286 whole entry): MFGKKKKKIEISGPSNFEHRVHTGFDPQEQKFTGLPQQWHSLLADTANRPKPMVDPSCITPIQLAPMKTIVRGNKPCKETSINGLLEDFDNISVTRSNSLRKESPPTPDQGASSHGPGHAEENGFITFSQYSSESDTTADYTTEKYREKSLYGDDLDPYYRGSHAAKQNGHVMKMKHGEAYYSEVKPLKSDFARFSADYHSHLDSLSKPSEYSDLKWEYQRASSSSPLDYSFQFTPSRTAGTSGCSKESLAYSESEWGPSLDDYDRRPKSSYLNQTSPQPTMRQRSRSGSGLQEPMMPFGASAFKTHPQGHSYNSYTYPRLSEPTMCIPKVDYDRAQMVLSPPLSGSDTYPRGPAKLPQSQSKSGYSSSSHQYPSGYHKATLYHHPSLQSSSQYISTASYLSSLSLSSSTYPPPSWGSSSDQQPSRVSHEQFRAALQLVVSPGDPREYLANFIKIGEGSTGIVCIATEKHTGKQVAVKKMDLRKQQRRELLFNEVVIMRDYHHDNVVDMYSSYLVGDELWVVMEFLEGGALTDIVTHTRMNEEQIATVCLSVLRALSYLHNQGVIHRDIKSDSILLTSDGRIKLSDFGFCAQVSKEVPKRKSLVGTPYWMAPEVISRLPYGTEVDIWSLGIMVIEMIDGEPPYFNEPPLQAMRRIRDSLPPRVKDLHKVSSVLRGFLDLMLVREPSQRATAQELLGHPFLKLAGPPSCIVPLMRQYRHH
# T7 sequence (P42684 whole entry): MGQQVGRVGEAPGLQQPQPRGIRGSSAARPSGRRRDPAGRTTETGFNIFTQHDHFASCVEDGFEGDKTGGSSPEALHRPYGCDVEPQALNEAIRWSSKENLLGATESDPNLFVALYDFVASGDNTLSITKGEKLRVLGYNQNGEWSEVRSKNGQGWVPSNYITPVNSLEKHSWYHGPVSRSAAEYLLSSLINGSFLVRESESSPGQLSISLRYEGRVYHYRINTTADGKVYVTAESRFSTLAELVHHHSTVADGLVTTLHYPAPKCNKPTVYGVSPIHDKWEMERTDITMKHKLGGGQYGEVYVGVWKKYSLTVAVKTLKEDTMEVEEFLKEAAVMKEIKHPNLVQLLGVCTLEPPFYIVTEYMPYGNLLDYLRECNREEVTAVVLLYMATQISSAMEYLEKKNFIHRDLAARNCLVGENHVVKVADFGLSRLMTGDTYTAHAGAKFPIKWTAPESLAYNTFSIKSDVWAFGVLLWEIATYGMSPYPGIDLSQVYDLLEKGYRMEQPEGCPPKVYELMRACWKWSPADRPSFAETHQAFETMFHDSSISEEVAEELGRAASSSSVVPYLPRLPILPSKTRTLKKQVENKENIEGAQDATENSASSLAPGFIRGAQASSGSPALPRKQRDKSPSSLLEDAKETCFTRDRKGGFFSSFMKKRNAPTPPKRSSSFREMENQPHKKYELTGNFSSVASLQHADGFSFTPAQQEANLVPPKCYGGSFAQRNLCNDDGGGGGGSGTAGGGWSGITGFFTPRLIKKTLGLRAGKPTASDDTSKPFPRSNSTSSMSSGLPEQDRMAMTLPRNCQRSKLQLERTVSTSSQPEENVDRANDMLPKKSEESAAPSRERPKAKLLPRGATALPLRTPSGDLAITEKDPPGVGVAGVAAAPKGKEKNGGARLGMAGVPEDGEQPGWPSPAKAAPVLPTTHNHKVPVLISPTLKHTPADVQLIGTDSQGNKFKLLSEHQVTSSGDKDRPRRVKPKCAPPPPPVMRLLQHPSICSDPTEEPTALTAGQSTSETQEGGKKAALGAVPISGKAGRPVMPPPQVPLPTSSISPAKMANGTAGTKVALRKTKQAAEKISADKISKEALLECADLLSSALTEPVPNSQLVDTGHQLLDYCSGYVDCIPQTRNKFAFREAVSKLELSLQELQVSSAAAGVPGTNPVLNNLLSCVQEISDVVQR
# T22 sequence (Q9UIK4 whole entry): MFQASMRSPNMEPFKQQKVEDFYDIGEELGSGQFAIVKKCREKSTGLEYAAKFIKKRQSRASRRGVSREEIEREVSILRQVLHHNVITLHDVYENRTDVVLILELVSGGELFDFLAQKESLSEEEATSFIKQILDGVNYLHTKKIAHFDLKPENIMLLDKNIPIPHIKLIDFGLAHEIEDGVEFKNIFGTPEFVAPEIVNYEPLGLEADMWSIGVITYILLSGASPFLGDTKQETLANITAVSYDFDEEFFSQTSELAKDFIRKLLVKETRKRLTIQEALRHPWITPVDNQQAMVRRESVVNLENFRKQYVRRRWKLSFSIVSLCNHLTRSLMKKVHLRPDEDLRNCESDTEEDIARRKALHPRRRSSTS
# T5 sequence (Q9Y6M4 whole entry): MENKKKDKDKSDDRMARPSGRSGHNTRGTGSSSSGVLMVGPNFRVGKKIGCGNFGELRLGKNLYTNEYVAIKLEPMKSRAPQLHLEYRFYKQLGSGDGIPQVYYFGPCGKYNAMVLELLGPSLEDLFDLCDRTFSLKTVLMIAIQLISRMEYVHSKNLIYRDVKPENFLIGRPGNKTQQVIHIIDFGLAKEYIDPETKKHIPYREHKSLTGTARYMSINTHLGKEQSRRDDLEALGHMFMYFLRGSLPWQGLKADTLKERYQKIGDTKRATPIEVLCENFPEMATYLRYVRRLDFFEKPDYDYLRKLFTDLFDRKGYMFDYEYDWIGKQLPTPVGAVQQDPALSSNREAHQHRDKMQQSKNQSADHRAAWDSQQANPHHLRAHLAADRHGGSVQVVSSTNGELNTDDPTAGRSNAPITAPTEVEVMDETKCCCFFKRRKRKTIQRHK
# T19 sequence (P07948 whole entry): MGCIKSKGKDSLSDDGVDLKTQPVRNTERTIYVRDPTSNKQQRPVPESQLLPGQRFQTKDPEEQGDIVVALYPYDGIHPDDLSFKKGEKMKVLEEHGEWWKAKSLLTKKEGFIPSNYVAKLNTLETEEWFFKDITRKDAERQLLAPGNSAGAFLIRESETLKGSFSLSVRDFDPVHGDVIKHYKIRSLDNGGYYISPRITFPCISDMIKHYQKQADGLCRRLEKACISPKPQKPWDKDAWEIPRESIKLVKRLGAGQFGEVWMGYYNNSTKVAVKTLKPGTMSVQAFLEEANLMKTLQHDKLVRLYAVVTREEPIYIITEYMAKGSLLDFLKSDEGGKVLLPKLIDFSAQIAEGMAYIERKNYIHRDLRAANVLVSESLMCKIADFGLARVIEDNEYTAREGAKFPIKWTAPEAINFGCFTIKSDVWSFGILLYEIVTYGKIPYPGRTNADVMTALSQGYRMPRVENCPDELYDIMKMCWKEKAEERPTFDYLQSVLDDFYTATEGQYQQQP
structure (smiles),measurement,setting,value
"COCCN1C[C@@H](NC(=O)Nc2sc(C(C)C)nc2-c2ccccc2)[C@H](c2ccccc2)C1 [Example 48, 1-(2-isopropyl-4-phenylthiazol-5-yl)-3-((3S,4R)-1-(2-methoxyethyl)-4-phenylpyrrolidin-3-yl)urea]",IC50,TrkA [1],< 0.1 µM
same,Avg POC,TrkA [2],2.5% of control
same,Avg POC,c-RAF,106% of control
same,Avg POC,NEK3,129% of control
same,Avg POC,Fer,91.5% of control
same,Avg POC,CK1gamma3,110% of control
same,Avg POC,GRK5,106.5% of control
same,Avg POC,Abl2,124.5% of control
same,Avg POC,SIK,111% of control
same,Avg POC,PDGFRalpha,104.5% of control
same,Avg POC,BTK,97.5% of control
same,Avg POC,CHK1,110% of control
same,Avg POC,Hck,115.5% of control
same,Avg POC,PKCbetaII,97.5% of control
same,Avg POC,p38beta,115% of control
same,Avg POC,ErbB4,97% of control
same,Avg POC,Pim-2,104% of control
same,Avg POC,MSK1,121.5% of control
same,Avg POC,PAK5,113% of control
same,Avg POC,Lyn,108.5% of control
same,Avg POC,PTK5,107.5% of control
same,Avg POC,TSSK1,99.5% of control
same,Avg POC,DAPK2,99% of control
same,Avg POC,MKNK2,96% of control
